# Laboratory results taken from ChEMBL document CHEMBL1681645, “Pyrrolo[1,2-f]triazines as JAK2 inhibitors: achieving potency and selectivity for JAK2 over JAK3” (Bioorg Med Chem Lett, 2011).
# Tested on: not listed separately
# Experiment: Antiproliferative activity against human SET2 cells assessed as inhibition of [3H]thymidine incorporation after 72 hrs
# Assay type: functional, cell-based
# Conditions: SET-2
row,SMILES,IC50 [nM]
1,O=C(Cc1ccccc1)N1CCN(c2nc(Nc3nccs3)c3cccn3n2)CC1,1200
2,Cc1cc(Nc2nc(N3CCN(C(=O)Cc4c(F)cc(Cl)cc4F)CC3)nn3cccc23)n[nH]1,80
3,Cc1cc(Nc2nc(N3CCN(C(=O)c4ccccc4Cl)CC3)nn3cccc23)n[nH]1,71
4,Cc1cc(Nc2nc(N3CCN(C(=O)c4ccccc4S(C)(=O)=O)CC3)nn3cccc23)n[nH]1,190
5,O=C(NC1CC1)c1cc(Nc2nc(N3CCN(C(=O)Cc4ccccc4)CC3)nn3cccc23)n[nH]1,1400
6,Cc1cc(Nc2nc(N3CCN(C(=O)Cc4ccccc4)CC3)nn3cccc23)n[nH]1,370
7,Cc1cc(Nc2nc(N3CCN(C(=O)c4ccccc4Br)CC3)nn3cccc23)n[nH]1,180
8,COc1cc(F)c(CC(=O)N2CCN(c3nc(Nc4cc(C)n[nH]4)c4cccn4n3)CC2)c(F)c1,110
9,CC(C)n1cnc(Nc2nc(N3CCN(C(=O)Cc4ccccc4)CC3)nn3cccc23)c1,670
10,Cc1cc(Nc2nc(N3CCN(C(=O)Cc4ccc(Cl)cc4)CC3)nn3cccc23)n[nH]1,590
11,Cc1cc(Nc2nc(N3CCN(C(=O)c4ccccc4C#N)CC3)nn3cccc23)n[nH]1,140
12,Cc1nnc(Nc2nc(N3CCN(C(=O)Cc4ccccc4)CC3)nn3cccc23)s1,690
13,Cc1cc(Nc2nc(N3CCN(C(=O)c4ccc(C#N)cc4)CC3)nn3cccc23)n[nH]1,6.2
14,Cc1cc(Nc2nc(N3CCN(C(=O)c4ccccc4)CC3)nn3cccc23)n[nH]1,62
15,Cc1cc(Nc2nc(N3CCN(C(=O)c4ccccc4C)CC3)nn3cccc23)n[nH]1,160
16,Cc1cc(Nc2nc(N3CCN(C(=O)Cc4ccc(F)cc4)CC3)nn3cccc23)n[nH]1,54
17,Cc1ccc(C(=O)N2CCN(c3nc(Nc4cc(C)[nH]n4)c4cccn4n3)CC2)cc1,59
18,Cc1ccc(CC(=O)N2CCN(c3nc(Nc4cc(C)[nH]n4)c4cccn4n3)CC2)cc1,310
19,CC1(c2cc(Nc3nc(N4CCN(C(=O)Cc5ccccc5)CC4)nn4cccc34)n[nH]2)CC1,980
20,COc1ccc(CC(=O)N2CCN(c3nc(Nc4cc(C)[nH]n4)c4cccn4n3)CC2)cc1,630
21,COc1ccccc1C(=O)N1CCN(c2nc(Nc3cc(C)[nH]n3)c3cccn3n2)CC1,90
22,Cc1cc(Nc2nc(N3CCN(C(=O)Cc4ccccc4C)CC3)nn3cccc23)n[nH]1,120
23,Cc1cc(Nc2nc(N3CCN(C(=O)Cc4ccccc4F)CC3)nn3cccc23)n[nH]1,170
24,Cc1cc(Nc2nc(N3CCN(C(=O)CCc4ccccc4)CC3)nn3cccc23)n[nH]1,76
25,Cc1cc(Nc2nc(N3CCN(C(=O)Cc4ccc(F)cc4F)CC3)nn3cccc23)n[nH]1,54

# Target: T1, Tyrosine-protein kinase JAK3 (Homo sapiens, UniProt P52333)
# T1 sequence (P52333 whole entry): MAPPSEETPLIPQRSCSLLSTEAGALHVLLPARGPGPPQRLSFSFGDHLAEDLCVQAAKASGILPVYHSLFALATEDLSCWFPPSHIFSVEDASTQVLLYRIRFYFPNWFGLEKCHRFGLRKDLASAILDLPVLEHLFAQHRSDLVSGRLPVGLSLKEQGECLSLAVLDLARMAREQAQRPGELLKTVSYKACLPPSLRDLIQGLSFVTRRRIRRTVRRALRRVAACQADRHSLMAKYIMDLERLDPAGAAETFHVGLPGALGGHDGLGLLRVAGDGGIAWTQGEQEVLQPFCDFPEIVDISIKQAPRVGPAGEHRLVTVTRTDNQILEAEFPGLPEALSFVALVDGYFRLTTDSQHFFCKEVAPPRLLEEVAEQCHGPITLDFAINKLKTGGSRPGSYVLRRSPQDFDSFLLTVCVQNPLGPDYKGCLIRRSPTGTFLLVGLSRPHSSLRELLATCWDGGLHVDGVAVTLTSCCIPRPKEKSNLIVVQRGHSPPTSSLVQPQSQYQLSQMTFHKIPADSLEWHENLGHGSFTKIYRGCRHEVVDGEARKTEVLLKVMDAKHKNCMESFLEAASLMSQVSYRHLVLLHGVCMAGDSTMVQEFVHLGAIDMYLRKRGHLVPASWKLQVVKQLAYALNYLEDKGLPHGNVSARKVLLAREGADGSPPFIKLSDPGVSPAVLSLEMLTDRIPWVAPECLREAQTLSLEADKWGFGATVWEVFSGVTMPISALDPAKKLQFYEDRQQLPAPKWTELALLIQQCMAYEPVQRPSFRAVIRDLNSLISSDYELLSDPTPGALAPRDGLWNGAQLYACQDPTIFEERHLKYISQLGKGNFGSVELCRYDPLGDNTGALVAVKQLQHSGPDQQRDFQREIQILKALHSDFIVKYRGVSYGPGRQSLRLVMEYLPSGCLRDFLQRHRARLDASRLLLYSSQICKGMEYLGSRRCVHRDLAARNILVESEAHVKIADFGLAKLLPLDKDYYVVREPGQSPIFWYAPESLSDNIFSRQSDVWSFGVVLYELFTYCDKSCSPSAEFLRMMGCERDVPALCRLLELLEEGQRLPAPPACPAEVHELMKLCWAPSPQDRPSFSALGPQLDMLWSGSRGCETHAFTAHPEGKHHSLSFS
# Experiment: Inhibition of JAK3 after 60 mins
# Conditions: not given
row,SMILES,IC50 [nM]
1,Cc1nnc(Nc2nc(N3CCN(C(=O)Cc4ccccc4)CC3)nn3cccc23)s1,18000

# Tested on: not listed separately
# Experiment: Selectivity ratio of IC50 for JAK3 over IC50 for JAK2
# Conditions: not given
row,SMILES,Ratio IC50
1,O=C(Cc1ccccc1)N1CCN(c2nc(Nc3nccs3)c3cccn3n2)CC1,37
2,Cc1cc(Nc2nc(N3CCN(C(=O)Cc4c(F)cc(Cl)cc4F)CC3)nn3cccc23)n[nH]1,67
3,Cc1cc(Nc2nc(N3CCNCC3)nn3cccc23)n[nH]1,15
4,O=C(Cc1ccccc1)N1CCN(c2nc(Nc3ccccn3)c3cccn3n2)CC1,41
5,Cc1nnc(Nc2nc(N3CCN(C(=O)Cc4ccccc4)CC3)nn3cccc23)s1,1.3
6,Cc1cc(Nc2nc(N3CCN(C(=O)Cc4ccc(F)cc4)CC3)nn3cccc23)n[nH]1,25
7,CCC(=O)N1CCN(c2nc(Nc3cc(C)[nH]n3)c3cccn3n2)CC1,5
8,Cc1cc(Nc2nc(N3CCN(C(=O)N(C)C)CC3)nn3cccc23)n[nH]1,11

# Target: Tyrosine-protein kinase JAK2 (Homo sapiens, UniProt O60674)
# Sequence (O60674 whole entry): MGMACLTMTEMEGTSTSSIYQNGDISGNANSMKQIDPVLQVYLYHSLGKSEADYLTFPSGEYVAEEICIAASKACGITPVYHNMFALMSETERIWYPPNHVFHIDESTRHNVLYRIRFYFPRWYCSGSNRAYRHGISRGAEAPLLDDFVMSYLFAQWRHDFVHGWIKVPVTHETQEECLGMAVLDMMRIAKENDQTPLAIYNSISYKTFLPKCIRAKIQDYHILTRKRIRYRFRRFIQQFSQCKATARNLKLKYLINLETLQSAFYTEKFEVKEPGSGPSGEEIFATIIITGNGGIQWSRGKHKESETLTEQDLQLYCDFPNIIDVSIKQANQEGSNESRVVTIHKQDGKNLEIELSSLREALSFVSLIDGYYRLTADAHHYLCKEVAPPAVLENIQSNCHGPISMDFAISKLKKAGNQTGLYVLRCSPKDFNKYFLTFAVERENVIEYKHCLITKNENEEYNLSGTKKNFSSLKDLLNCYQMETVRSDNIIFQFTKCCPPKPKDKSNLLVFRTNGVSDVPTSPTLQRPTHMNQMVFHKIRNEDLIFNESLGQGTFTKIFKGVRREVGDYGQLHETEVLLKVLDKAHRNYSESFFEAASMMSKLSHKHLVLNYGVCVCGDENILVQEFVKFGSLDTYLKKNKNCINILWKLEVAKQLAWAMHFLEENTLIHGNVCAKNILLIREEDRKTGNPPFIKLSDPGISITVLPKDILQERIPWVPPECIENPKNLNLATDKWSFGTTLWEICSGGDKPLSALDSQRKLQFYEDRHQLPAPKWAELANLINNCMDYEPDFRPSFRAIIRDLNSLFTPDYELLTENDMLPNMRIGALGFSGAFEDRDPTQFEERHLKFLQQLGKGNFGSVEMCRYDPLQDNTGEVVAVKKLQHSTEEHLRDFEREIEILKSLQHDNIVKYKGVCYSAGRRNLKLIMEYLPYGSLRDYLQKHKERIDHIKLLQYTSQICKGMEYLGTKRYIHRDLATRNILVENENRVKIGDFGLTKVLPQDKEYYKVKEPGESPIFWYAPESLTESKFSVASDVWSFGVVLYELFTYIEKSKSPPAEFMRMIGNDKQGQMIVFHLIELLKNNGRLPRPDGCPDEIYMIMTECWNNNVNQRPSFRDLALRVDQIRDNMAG
# Experiment: Inhibition of JAK2 after 60 mins
# Conditions: not given
row,SMILES,IC50 [nM]
1,O=C(Cc1ccccc1)N1CCN(c2nc(Nc3nccs3)c3cccn3n2)CC1,59
2,Cc1cc(Nc2nc(N3CCN(C(=O)Cc4c(F)cc(Cl)cc4F)CC3)nn3cccc23)n[nH]1,1
3,Cc1cc(Nc2nc(N3CCN(C(=O)c4ccccc4Cl)CC3)nn3cccc23)n[nH]1,7.3
4,Cc1cc(Nc2nc(N3CCN(C(=O)c4ccccc4S(C)(=O)=O)CC3)nn3cccc23)n[nH]1,1.1
5,O=C(NC1CC1)c1cc(Nc2nc(N3CCN(C(=O)Cc4ccccc4)CC3)nn3cccc23)n[nH]1,2700
6,Cc1cc(Nc2nc(N3CCN(C(=O)Cc4ccccc4)CC3)nn3cccc23)n[nH]1,2.8
7,Cc1cc(Nc2nc(N3CCN(C(=O)c4ccccc4Br)CC3)nn3cccc23)n[nH]1,2.1
8,O=C(Cc1ccccc1)N1CCN(c2nc(Nc3ccccn3)c3cccn3n2)CC1,190
9,CC(C)n1cnc(Nc2nc(N3CCN(C(=O)Cc4ccccc4)CC3)nn3cccc23)c1,110
10,Cc1cc(Nc2nc(N3CCN(C(=O)Cc4ccc(Cl)cc4)CC3)nn3cccc23)n[nH]1,0.6
11,Cc1cc(Nc2nc(N3CCN(C(=O)c4ccccc4C#N)CC3)nn3cccc23)n[nH]1,6
12,Cc1nnc(Nc2nc(N3CCN(C(=O)Cc4ccccc4)CC3)nn3cccc23)s1,14000
13,Cc1cc(Nc2nc(N3CCN(C(=O)c4ccc(C#N)cc4)CC3)nn3cccc23)n[nH]1,4.8
14,Cc1cc(Nc2nc(N3CCN(C(=O)c4ccccc4)CC3)nn3cccc23)n[nH]1,2.2
15,Cc1cc(Nc2nc(N3CCN(C(=O)c4ccccc4C)CC3)nn3cccc23)n[nH]1,3
16,Cc1cc(Nc2nc(N3CCN(C(=O)Cc4ccc(F)cc4)CC3)nn3cccc23)n[nH]1,0.9
17,Cc1ccc(C(=O)N2CCN(c3nc(Nc4cc(C)[nH]n4)c4cccn4n3)CC2)cc1,4.5
18,Cc1ccc(CC(=O)N2CCN(c3nc(Nc4cc(C)[nH]n4)c4cccn4n3)CC2)cc1,1.1
19,CC1(c2cc(Nc3nc(N4CCN(C(=O)Cc5ccccc5)CC4)nn4cccc34)n[nH]2)CC1,22
20,CCC(=O)N1CCN(c2nc(Nc3cc(C)[nH]n3)c3cccn3n2)CC1,22
21,COc1ccc(CC(=O)N2CCN(c3nc(Nc4cc(C)[nH]n4)c4cccn4n3)CC2)cc1,1.2
22,COc1ccccc1C(=O)N1CCN(c2nc(Nc3cc(C)[nH]n3)c3cccn3n2)CC1,3.5
23,Cc1cc(Nc2nc(N3CCN(C(=O)Cc4ccccc4C)CC3)nn3cccc23)n[nH]1,5.3
24,Cc1cc(Nc2nc(N3CCN(C(=O)Cc4ccccc4F)CC3)nn3cccc23)n[nH]1,4.6
25,Cc1cc(Nc2nc(N3CCN(C(=O)N(C)C)CC3)nn3cccc23)[nH]n1,9.3
26,Cc1cc(Nc2nc(N3CCN(C(=O)CCc4ccccc4)CC3)nn3cccc23)n[nH]1,2
27,Cc1cc(Nc2nc(N3CCN(C(=O)Cc4ccc(F)cc4F)CC3)nn3cccc23)n[nH]1,2.4

# Tested on: not listed separately
# Experiment: Selectivity ratio of IC50 for JAK1 over IC50 for JAK2
# Conditions: not given
row,SMILES,Ratio IC50
1,O=C(Cc1ccccc1)N1CCN(c2nc(Nc3nccs3)c3cccn3n2)CC1,2.6
2,Cc1cc(Nc2nc(N3CCN(C(=O)Cc4c(F)cc(Cl)cc4F)CC3)nn3cccc23)n[nH]1,3.8
3,Cc1cc(Nc2nc(N3CCNCC3)nn3cccc23)n[nH]1,16
4,O=C(Cc1ccccc1)N1CCN(c2nc(Nc3ccccn3)c3cccn3n2)CC1,11
5,Cc1cc(Nc2nc(N3CCN(C(=O)Cc4ccc(F)cc4)CC3)nn3cccc23)n[nH]1,6.5
6,Cc1cc(Nc2nc(N3CCN(C(=O)N(C)C)CC3)nn3cccc23)n[nH]1,5
